In patent US9133200B2, “Imidazo[1,2-b]pyridazine and imidazo[4,5-b]pyridine derivatives as JAK inhibitors” (Almirall, S.A., priority 2010, dated 2015):
pIC50: −log10 of the molar value.

How the values were obtained:
Type in all cases: biochemical
human JAK2 (aa 826-1132) = molecular target: T1, human JAK2 (aa 826-1132) (Homo sapiens, UniProt O60674); assay: In vitro JAK kinase assay (TR-FRET), JAK2; conditions: catalytic domain GST-fusion; ATP 0.2 μM; poly (GT)-Biotin; 30 minutes at room temperature
T1 construct: JAK2 (aa 826-1132); GST (N); purchased Carna Biosciences; host or cells: baculovirus expression system
T1 sequence (O60674 826-1132): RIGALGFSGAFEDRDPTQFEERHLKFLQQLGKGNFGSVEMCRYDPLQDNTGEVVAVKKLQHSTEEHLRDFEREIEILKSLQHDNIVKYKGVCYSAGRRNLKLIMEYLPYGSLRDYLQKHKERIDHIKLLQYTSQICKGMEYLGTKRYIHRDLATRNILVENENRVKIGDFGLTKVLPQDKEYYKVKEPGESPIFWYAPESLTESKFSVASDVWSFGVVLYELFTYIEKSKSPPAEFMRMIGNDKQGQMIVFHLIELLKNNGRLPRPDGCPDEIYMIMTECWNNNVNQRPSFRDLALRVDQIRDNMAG
Procedure: (§1) Compounds were screened for their ability to inhibit JAK1, JAK2 and JAK3 using the assays as indicated below.
(§2) The catalytic domains of human JAK1 (aa 850-1154), JAK2 (aa 826-1132), JAK3 (aa 795-1124) and Tyk2 (aa 871-1187) were expressed as N-terminal GST-fusion proteins using a baculovirus expression system and were purchased from Carna Biosciences. The enzymatic activity was assayed using as substrate a biotinylated peptide, poly (GT)-Biotin (CisBio). The peptide concentration in the reactions was 60 nM for JAK1, […], 140 nM for JAK3 and 50 nM for Tyk2. The degree of phosphorylation was detected by TR-FRET (time-resolved fluorescence energy transfer).
(§3) IC50s of compounds were measured for each kinase in a reaction mixture containing the enzyme, ATP and the peptide in 8 mM MOPS (pH 7.0), 10 mM MgCl2, 0.05% […], 0.45 mg/ml BSA. The ATP concentration in the reactions was 3 μM for JAK1, 0.2 μM for JAK2, 0.6 μM for JAK3 and 1.8 μM for Tyk2. The enzymatic reactions took place for 30 minutes at room temperature. Then, the reactions were stopped with 20 μL of quench detection buffer (50 mM HEPES, 0.5 M KF, EDTA 0.25 M, 0.1% (w/v) BSA, pH 7.5) containing 0.115 μg/mL of anti-phosphoTyr (PT66)-Cryptate (CisBio) and a variable concentration of SA-XL665 (CisBio) to keep the SA-B ratio constant. Incubate for 3 h and read on Victor 2V spectrofluorometer (PerkinElmer) set to read fluorescence resonance energy transfer.

human JAK3 (aa 795-1124) = molecular target: T2, human JAK3 (aa 795-1124) (Homo sapiens, UniProt P52333); assay: In vitro JAK kinase assay (TR-FRET), JAK3; conditions: catalytic domain GST-fusion; ATP 0.6 μM; poly (GT)-Biotin 140 nM; 30 minutes at room temperature
T2 construct: JAK3 (aa 795-1124); GST (N); purchased Carna Biosciences; host or cells: baculovirus expression system
T2 sequence (P52333 795-1124): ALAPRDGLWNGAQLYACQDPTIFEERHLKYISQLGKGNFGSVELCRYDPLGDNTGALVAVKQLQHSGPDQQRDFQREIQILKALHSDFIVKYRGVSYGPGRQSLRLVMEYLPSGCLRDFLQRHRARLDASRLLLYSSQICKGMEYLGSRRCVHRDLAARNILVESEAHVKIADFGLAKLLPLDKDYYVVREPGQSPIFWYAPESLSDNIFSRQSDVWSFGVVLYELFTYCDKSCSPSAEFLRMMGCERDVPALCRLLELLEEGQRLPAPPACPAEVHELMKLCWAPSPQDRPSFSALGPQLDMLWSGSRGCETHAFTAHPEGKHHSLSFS
Procedure: as §1, §2, §3

human JAK1 (aa 850-1154) = molecular target: T3, human JAK1 (aa 850-1154) (Homo sapiens, UniProt P23458); assay: In vitro JAK kinase assay (TR-FRET), JAK1; conditions: catalytic domain GST-fusion; ATP 3 μM; poly (GT)-Biotin 60 nM; 30 minutes at room temperature
T3 construct: human JAK1 (aa 850-1154); GST (N); purchased Carna Biosciences; host or cells: baculovirus expression system
T3 sequence (P23458 850-1154): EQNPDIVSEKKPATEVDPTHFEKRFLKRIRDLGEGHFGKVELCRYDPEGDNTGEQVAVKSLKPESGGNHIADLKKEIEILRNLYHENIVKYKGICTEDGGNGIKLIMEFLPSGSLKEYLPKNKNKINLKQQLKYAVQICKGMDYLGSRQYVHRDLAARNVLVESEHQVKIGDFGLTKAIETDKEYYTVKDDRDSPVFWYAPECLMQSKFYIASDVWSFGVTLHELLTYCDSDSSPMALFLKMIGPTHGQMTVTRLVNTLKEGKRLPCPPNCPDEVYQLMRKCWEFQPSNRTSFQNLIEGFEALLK
Procedure: as §1, §2, §3

Row | pIC50 (human JAK2 (aa 826-1132)) | pIC50 (human JAK3 (aa 795-1124)) | pIC50 (human JAK1 (aa 850-1154)) | Compound
1 | > 7.00 | > 7.00 | 6.00 to 7.00 | C[C@H](Nc1ccc2ncc(-c3ccn[nH]c3=O)n2n1)c1ccccc1 [Example 6, 4-(6-{[(1S)-1-Phenylethyl]amino}imidazo[1,2-b]pyridazin-3-yl)pyridazin-3(2H)-one]
2 | > 7.00 | > 7.00 | > 7.00 | C[C@H](Nc1ccc2ncc(-c3cc(Cl)c[nH]c3=O)n2n1)c1ccc(F)cn1 [Example 8, 5-Chloro-3-(6-{[(1S)-1-(5-fluoropyridin-2-yl)ethyl]amino}imidazo[1,2-b]pyridazin-3-yl)pyridin-2(1H)-one]
3 | > 7.00 | > 7.00 | > 7.00 | Cc1cc2ncc(-c3ccc[nH]c3=O)n2nc1N[C@@H](C)c1ccc(F)cn1 [Example 9, 3-(6-{[(1S)-1-(5-Fluoropyridin-2-yl)ethyl]amino}-7-methylimidazo[1,2-b]pyridazin-3-yl)pyridin-2(1H)-one]
4 | > 7.00 | > 7.00 | > 7.00 | C[C@H](Nc1ccc2ncn(-c3cc(Cl)c[nH]c3=O)c2n1)c1ccc(F)cn1 [Example 13, 5-Chloro-3-(5-{[(1S)-1-(5-fluoropyridin-2-yl)ethyl]amino}-3H-imidazo[4,5-b]pyridin-3-yl)pyridin-2(1H)-one]

Second part, the compound before the results:

Row | Compound | pIC50 (human JAK2 (aa 826-1132)) | pIC50 (human JAK3 (aa 795-1124)) | pIC50 (human JAK1 (aa 850-1154))
5 | N#CCC(=O)N1CCC[C@@H](Nc2ccc3ncc(-c4ccc[nH]c4=O)n3n2)C1 [Example 1, 3-Oxo-3-((3R)-3-{[3-(2-oxo-1,2-dihydropyridin-3-yl)imidazo[1,2-b]pyridazin-6-yl]amino}piperidin-1-yl)propanenitrile] | > 7.00 | > 7.00 | > 7.00
6 | C[C@@H](Nc1ccc2ncc(-c3ccc[nH]c3=O)n2n1)c1ccc(F)cn1 [Example 4, 3-(6-{[(1R)-1-(5-Fluoropyridin-2-yl)ethyl]amino}imidazo[1,2-b]pyridazin-3-yl) pyridin-2(1H)-one] | > 7.00 | > 7.00 | 6.00 to 7.00
7 | C[C@H](Nc1ccc2ncc(-c3ccc[nH]c3=O)n2n1)c1ncc(F)cn1 [Example 5, 3-(6-{[(1S)-1-(5-Fluoropyrimidin-2-yl)ethyl]amino}imidazo[1,2-b]pyridazin-3-yl)pyridin-2(1H)-one] | > 7.00 | > 7.00 | > 7.00
